Data from publication doi:10.1101/2025.05.02.651913 (bioRxiv, 2025).
Like-named read-outs stand apart in the source and are kept apart here.

Experiments:
[1] = human, in vivo; cited from earlier work
MPXV Clade IIb = type: cell-based, Mpox virus (MPXV)
Mpox-related lesions = settings: human, in vivo; cited from earlier work
MPXV [2] = tested on: MPXV; parameters: species or system C57BL/6 mice; settings: mouse, in vivo
[3] = tested on: MPXV strain hMPXV/USA/MA001/2022 (Lineage B.1, Clade IIb); type: cell-based, Mpox virus (MPXV)
MPXV (2022 Clade IIb) [4] = type: cell-based, Mpox virus (MPXV)
MPXV [5] = type: cell-based, Mpox virus (MPXV)
phospho-STING = type: cell-based, human
phospho-NF-κB = type: cell-based, human
vaccinia virus = settings: cited from earlier work
cowpox virus = settings: cited from earlier work
MPXV (2022 Clade IIb) [6] = test: microbe, parasite or virus in culture; type: cell-based, Mpox virus (MPXV); settings: Monkeypox virus, read-out: IC50 (inhibition of MPXV infection)
in vitro = settings: human
MPXV [7] = settings: cited from earlier work
MPXV [8] = settings: in vivo; cited from earlier work
[9] = in vivo; cited from earlier work

Nc1ccn(C[C@@H](CO)OCP(=O)(O)O)c(=O)n1 [cidofovir]
serious side effects in clinical trials [1]: kidney toxicity

O=C(NN1C(=O)[C@@H]2[C@@H]3C=C[C@@H]([C@H]4C[C@@H]34)[C@@H]2C1=O)c1ccc(C(F)(F)F)cc1 [Tecovirimat]
antiviral activity against MPXV Clade IIb (MPXV Clade IIb): did not exhibit strong antiviral activity
time to resolution of Mpox-related lesions (Mpox-related lesions): did not reduce the time to resolution of Mpox-related lesions

CCNC(=O)N1CCc2cc(OC)c(OCCc3ccc(OC)c(N)c3)cc2C1c1ccc(OC)cc1C (stereo not drawn) [KRAS inhibitor-10]
CC50 (VK2/E6E7 cells): > 1000 nM
nontoxic up to a concentration (VK2/E6E7 cells): ≤ 1000 nM
skin inflammation and lesions at Day 3 (MPXV [2]): some low-grade inflammation and lesions
skin inflammation and lesions at Day 12 (MPXV [2]): fully resolved
Duplicate of Duplicate of Hits: No CPE [3]: 1

Cc1ccc(C(=O)Nc2ccc(CN3CCN(C)CC3)c(C(F)(F)F)c2)cc1C#Cc1cnc2[nH]ncc2c1 [GZD824, Olverembatinib (dimesylate)]
antiviral activity at lower concentrations (MPXV (2022 Clade IIb) [4]): potent antiviral activity
Duplicate of Duplicate of Hits: No CPE [3]: 1

COc1ncc(-c2ccc3nccc(-c4ccnnc4)c3c2)cc1NS(=O)(=O)c1ccc(F)cc1F [GSK2126458, Omipalisib]
antiviral activity at lower concentrations (MPXV (2022 Clade IIb) [4]): potent antiviral activity
Duplicate of Duplicate of Hits: No CPE [3]: 1

IRAK4-IN-6
viral protein in cell lysates (Western blot) (MPXV [5]): substantially reduced
phospho-STING expression (phospho-STING): significantly increased
CC50 (VK2/E6E7 cells): > 1000 nM
nontoxic up to a concentration (VK2/E6E7 cells): ≤ 1000 nM
visible skin lesions or neutrophil infiltration (MPXV [2]): none of the mice in the IRAK4-IN-6-treated group had visible skin lesions or neutrophil infiltration
Duplicate of Duplicate of Hits: No CPE [3]: 1
phospho-NF-κB expression (phospho-NF-κB): significantly increased

COc1cc2ncnc(Nc3ccc(F)c(Cl)c3)c2cc1OCCCN1CCOCC1 [Gefitinib]
vaccinia virus replication (vaccinia virus): reduce vaccinia and cowpox virus replication
Duplicate of Duplicate of Hits: No CPE [3]: 1
cowpox virus replication (cowpox virus): reduce vaccinia and cowpox virus replication

CC(C)n1nc(-c2ccc3oc(N)nc3c2)c2c(N)ncnc21 [INK-128, Sapanisertib]
antiviral activity at lower concentrations (MPXV (2022 Clade IIb) [4]): potent antiviral activity
concentration at which toxicity was shown (VK2/E6E7 cells; human): 80 to 100 nM
IC50 (MPXV (2022 Clade IIb) [6]): 27.1 nM
Duplicate of Duplicate of Hits: No CPE [3]: 1
CC50 (in vitro): 353 nM

NC(=O)c1ncn([C@@H]2O[C@H](CO)[C@@H](O)[C@H]2O)n1 [Ribavirin]
MPXV replication in vitro (MPXV [7]): block MPXV replication
MPXV replication in mouse models (MPXV [8]): block MPXV replication
adverse effect in humans [9]: severe bone marrow suppression

O=C(Nc1ncc([N+](=O)[O-])s1)c1ccc([N+](=O)[O-])c(Cl)c1 [SM-7368]
viral protein in cell lysates (Western blot) (MPXV [5]): substantially reduced
antiviral activity at lower concentrations (MPXV (2022 Clade IIb) [4]): potent antiviral activity
CC50 (VK2/E6E7 cells): > 1000 nM
nontoxic up to a concentration (VK2/E6E7 cells): ≤ 1000 nM
skin inflammation and lesions at Day 3 (MPXV [2]): some low-grade inflammation and lesions
skin inflammation and lesions at Day 12 (MPXV [2]): fully resolved
Duplicate of Duplicate of Hits: No CPE [3]: 1

PI3K/mTOR Inhibitor-11
antiviral activity at lower concentrations (MPXV (2022 Clade IIb) [4]): potent antiviral activity
CC50 (VK2/E6E7 cells): 421 nM
concentration at which toxicity was shown (VK2/E6E7 cells): 80 to 100 nM
Duplicate of Duplicate of Hits: No CPE [3]: 1

CN(C)C/C=C/C(=O)Nc1cc2c(Nc3ccc(F)c(Cl)c3)ncnc2cc1OC(F)F.O=C(O)/C=C\C(=O)O.O=C(O)/C=C\C(=O)O [Mefatinib]
antiviral activity at lower concentrations (MPXV (2022 Clade IIb) [4]): potent antiviral activity
Duplicate of Duplicate of Hits: No CPE [3]: 1

CCOc1cc2ncc(C#N)c(Nc3ccc(F)c(Cl)c3)c2cc1NC(=O)/C=C/CN(C)C [Pelitinib]
antiviral activity at lower concentrations (MPXV (2022 Clade IIb) [4]): potent antiviral activity
Duplicate of Duplicate of Hits: No CPE [3]: 1

Afatinib impurity 11 [MC-Afatinib impurity 11]
Duplicate of Duplicate of Hits: No CPE [3]: 1

O=C(Nc1ccc([N+](=O)[O-])cc1Cl)c1cc(Cl)ccc1O [Niclosamide]
viral inhibition compared to vehicle treatment (percent viral infectivity, Fig. 2B) (MPXV (2022 Clade IIb) [4]): strongest viral inhibition
concentration at which toxicity was shown (VK2/E6E7 cells; human): 80 to 100 nM
IC50 (MPXV (2022 Clade IIb) [6]): 11.8 nM
Duplicate of Duplicate of Hits: No CPE [3]: 1
CC50 (in vitro): 96.3 nM

Cc1c(CN2CCN(C(=O)[C@H](C)O)CC2)sc2c(N3CCOCC3)nc(-c3cnc(N)nc3)nc12 [NKIL-GDC-0980 (RG7422), Apitolisib]
Duplicate of Duplicate of Hits: No CPE [3]: 1

O=C1Nc2cc3[nH]nc(-c4ccncc4)c3cc2CN1Cc1ccccc1 [MC-KO-947, KO-947]
Duplicate of Duplicate of Hits: No CPE [3]: 1

COc1cc(Nc2c(C#N)cnc3cc(OCCCN4CCN(C)CC4)c(OC)cc23)c(Cl)cc1Cl [LOPAC-Bosutinib, Bosutinib]
Duplicate of Duplicate of Hits: No CPE [3]: 1

COc1ccc(N(C(=O)Oc2cc(C(=O)Nc3cccc(C(F)(F)F)c3)ccc2C)c2ccnc(Nc3ccc(N4CCN(C)CC4)cc3)n2)c(OC)c1 [MC-WH-4-025, WH-4-025]
Duplicate of Duplicate of Hits: No CPE [3]: 1

COC1(c2sc3c(N4CCOCC4)nc(-c4cnc(N)nc4)nc3c2C)COC1 [GNE-317]
CC50 (VK2/E6E7 cells): 201 nM
concentration at which toxicity was shown (VK2/E6E7 cells): 80 to 100 nM
Duplicate of Duplicate of Hits: No CPE [3]: 1

COc1cc(F)c(F)c(Nc2ccc(I)cc2F)c1NS(=O)(=O)C1(C[C@H](O)CO)CC1 [NKIL-Refametinib (RDEA119, Bay 86-9766), Refametinib]
Duplicate of Duplicate of Hits: No CPE [3]: 1

C=CC(=O)Nc1cc2c(Nc3ccc(OCc4ccccn4)c(Cl)c3)ncnc2cc1OCCN1CCOCC1 [MC-Tuxobertinib, Tuxobertinib]
Duplicate of Duplicate of Hits: No CPE [3]: 1
